What follows are compounds tested against T1, human Chk1 (GST-Chk1) (Homo sapiens, UniProt O14757) (assay: Chk1 FlashPlate kinase assay). Conditions: 8.7 nM GST-Chk1, 1 uM ATP, 33P incorporation into peptide substrate.
T1 construct: made in house; host or cells: insect cells (baculovirus, Bac-to-Bac)
T1 sequence (O14757 1-476): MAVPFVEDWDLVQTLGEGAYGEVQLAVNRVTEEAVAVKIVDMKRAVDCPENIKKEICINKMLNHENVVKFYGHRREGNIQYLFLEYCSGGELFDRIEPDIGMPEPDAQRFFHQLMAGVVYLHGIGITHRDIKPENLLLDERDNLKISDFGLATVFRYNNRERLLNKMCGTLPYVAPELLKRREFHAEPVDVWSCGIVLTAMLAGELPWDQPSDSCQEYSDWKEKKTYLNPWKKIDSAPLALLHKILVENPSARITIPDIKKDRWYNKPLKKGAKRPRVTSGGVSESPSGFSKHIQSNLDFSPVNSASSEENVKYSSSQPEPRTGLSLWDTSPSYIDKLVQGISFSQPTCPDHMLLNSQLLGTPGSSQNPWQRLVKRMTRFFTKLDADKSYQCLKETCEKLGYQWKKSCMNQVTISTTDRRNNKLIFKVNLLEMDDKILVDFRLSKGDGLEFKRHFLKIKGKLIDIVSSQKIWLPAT
Format: biochemical
Method: Recombinant human Chk1 was expressed as a fusion protein with glutathione S-transferase at the amino-terminus (GST-Chk1) using standard baculovirus vectors and (Bac-to-Bac®) insect cell expression system purchased from GIBCO™ Invitrogen. Recombinant protein expressed in insect cells was purified using glutathione sepharose (Amersham Biotech) using standard procedures described by the manufacturer.
Chk1 FlashPlate® Kinase Assay:
Assays (25 μL) contained 8.7 nM GST-Chk1, 10 mM MES, 0.1 mM ethylene glycol-bis(β-aminoethylether)-N,N,N′,N′-tetracetic acid (EGTA, pH 8.0), 2 mM DTT, 0.05% Tween 20, 3 uM peptide substrate (Biotin-ILSRRPSYRKILND-free acid) (SEQ ID NO: 1), 1 uM ATP, 0.4 uCi ^33P-γ-ATP (NEN), 4% DMSO. Reactions were incubated for 30 minutes at room temperature, terminated with 50 μL of 50 mM EDTA and 90 μL were transferred to streptavidin-coated FlashPlates® (NEN) and incubated for 1 hour at room temperature. Plates were washed with phosphate buffered salaine containing 0.01% Tween-20 and 10 mM sodium pyrophosphate. Plates were dried, sealed with Topseal™ (NEN) and amount of ^33P incorporated into the peptide substate measure using a Packard Topcount® NXT™ scintillation counter with standard settings.

SMILES | IC50
Cc1[nH]nc2c1c(=O)n(CCCNC(=O)c1ccc(C(F)(F)F)cc1)c1ccccc21 [Example 72, N-[3-(3-Methyl-4-oxo-2,4-dihydro-pyrazolo[4,3-c]quinolin-5-yl)-propyl]-4-trifluoromethyl-benzamide] | < 1000 nM
Cc1n[nH]c2c1c(=O)n(CCCNC(=O)c1ccccc1)c1ccccc21 [Example 73, N-[3-(3-Methyl-4-oxo-1,4-dihydro-pyrazolo[4,3-c]quinolin-5-yl)-propyl]-benzamide] | < 1000 nM
Cc1[nH]nc2c1c(=O)n(CCCNC(=O)N1CCOCC1)c1ccccc21 [Example 74, Morpholine-4-carboxylic acid [3-(3-methyl-4-oxo-2,4-dihydro-pyrazolo[4,3-c]quinolin-5-yl)-propyl]-amide] | < 1000 nM
Cc1[nH]nc2c1c(=O)n(CCCNC(=O)c1ccc(Cl)c(Cl)c1)c1ccccc21 [Example 76, 3,4-Dichloro-N-[3-(3-methyl-4-oxo-2,4-dihydro-pyrazolo[4,3-c]quinolin-5-yl)-propyl]-benzamide] | < 1000 nM
COc1ccc2c(c1)c1n[nH]c(C)c1c(=O)n2CCCNC(=O)OC(C)(C)C [Example 79, [3-(8-Methoxy-3-methyl-4-oxo-2,4-dihydro-pyrazolo[4,3-c]quinolin-5-yl)-propyl]-carbamic acid tert-butyl ester] | < 1000 nM
Cc1[nH]nc2c1c(=O)n(CCCNC(=O)CCCc1ccccc1)c1ccccc21 [Example 81, N-[3-(3-Methyl-4-oxo-2,4-dihydro-pyrazolo[4,3-c]quinolin-5-yl)-propyl]-4-phenyl-butyramide] | < 1000 nM
Cc1[nH]nc2c1c(=O)n(CCCNS(=O)(=O)c1ccccc1)c1ccccc21 [Example 83, N-[3-(3-Methyl-4-oxo-2,4-dihydro-pyrazolo[4,3-c]quinolin-5-yl)-propyl]-benzenesulfonamide] | < 1000 nM
Cc1n[nH]c2c1c(=O)n(CCNC(=O)Nc1ccccc1)c1ccccc21 [Example 87] | 1000 to 20000 nM
Cc1[nH]nc2c1c(=O)n(CCNC(=O)c1ccc(Cl)cc1)c1ccccc21 [Example 90, 4-Chloro-N-[2-(3-methyl-4-oxo-2,4-dihydro-pyrazolo[4,3-c]quinolin-5-yl)-ethyl]-benzamide] | 1000 to 20000 nM
COc1ccc(C(=O)NCCn2c(=O)c3c(C)[nH]nc3c3ccccc32)cc1 [Example 91, 4-Methoxy-N-[2-(3-methyl-4-oxo-2,4-dihydro-pyrazolo[4,3-c]quinolin-5-yl)-ethyl]-benzamide] | 1000 to 20000 nM
Cc1[nH]nc2c1c(=O)n(CCNC(=O)CCc1ccccc1)c1ccccc21 [Example 92, N-[2-(3-Methyl-4-oxo-2,4-dihydro-pyrazolo[4,3-c]quinolin-5-yl)-ethyl]-3-phenyl-propionamide] | 1000 to 20000 nM
Cc1[nH]nc2c1c(=O)n(CCNC(=O)C1CCCCC1)c1ccccc21 [Example 93, Cyclohexanecarboxylic acid [2-(3-methyl4-oxo-2,4-dihydro-pyrazolo[4,3-c]quinolin-5-yl)-ethyl]-amide] | 1000 to 20000 nM
Cc1[nH]nc2c1c(=O)n(CCNC(=O)C1CCCC1)c1ccccc21 [Example 94, Cyclopentanecarboxylic acid [2-(3-methyl-4-oxo-2,4-dihydro-pyrazolo[4,3-c]quinolin-5-yl)-ethyl]-amide] | 1000 to 20000 nM
Cc1[nH]nc2c1c(=O)n(CCCNC(=O)C(Cc1ccc(Cl)cc1)NC(=O)OC(C)(C)C)c1ccccc21 (centres unmarked) [Example 96, {2-(4-Chloro-phenyl)-1-[3-(3-methyl-4-oxo-2,4-dihydro-pyrazolo[4,3-c]quinolin-5-yl)-propylcarbamoyl]-ethyl}-carbamic acid tert-butyl ester] | > 20000 nM
Cc1n[nH]c2c1c(=O)n(CCNC(=O)C(Cc1ccccc1)NC(=O)OC(C)(C)C)c1ccccc21 (centres unmarked) [Example 97, {1-[2-(3-Methyl-4-oxo-1,4-dihydro-pyrazolo[4,3-c]quinolin-5-yl)-ethylcarbamoyl]-2-phenyl-ethyl}-carbamic acid tert-butyl ester] | 1000 to 20000 nM
Cc1[nH]nc2c1c(=O)n(CCCNC(=O)C(Cc1ccc(OC(C)(C)C)cc1)NC(=O)OC(C)(C)C)c1ccccc21 (centres unmarked) [Example 98, {2-(4-tert-Butoxy-phenyl)-1-[3-(3-methyl-4-oxo-2,4-dihydro-pyrazolo[4,3-c]quinolin-5-yl)-propylcarbamoyl]-ethyl}-carbamic acid tert-butyl ester] | 1000 to 20000 nM
Cc1[nH]nc2c1c(=O)n(CCCNC(=O)CCC(NC(=O)OC(C)(C)C)C(=O)OC(C)(C)C)c1ccccc21 (centres unmarked) [Example 99, 2-tert-Butoxycarbonylamino-4-[3-(3-methyl-4-oxo-2,4-dihydro-pyrazolo[4,3-c]quinolin-5-yl)-propylcarbamoyl]-butyric acid tert-butyl ester] | 1000 to 20000 nM

Second part, the compound after the results:

IC50 | SMILES
< 1000 nM | Cc1[nH]nc2c1c(=O)n(CCCNC(=O)c1ccc(Cl)cc1)c1cc(Cl)ccc21 [Example 75, 4-Chloro-N-[3-(7-chloro-3-methyl-4-oxo-2,4-dihydro-pyrazolo[4,3-c]quinolin-5-yl)-propyl]-benzamide]
< 1000 nM | Cc1[nH]nc2c1c(=O)n(CCCNC(=O)c1ccc(N(C)C)cc1)c1ccccc21 [Example 78, 4-Dimethylamino-N-[3-(3-methyl-4-oxo-2,4-dihydro-pyrazolo[4,3-c]quinolin-5-yl)-propyl]-benzamide]
< 1000 nM | Cc1[nH]nc2c1c(=O)n(CCCNC(=O)OCc1ccccc1Cl)c1ccccc21 [Example 80, [3-(3-Methyl-4-oxo-2,4-dihydro-pyrazolo[4,3-c]quinolin-5-yl)-propyl]-carbamic acid 2-chloro-benzyl ester]
< 1000 nM | Cc1[nH]nc2c1c(=O)n(CCCNC(=O)c1cccnc1)c1ccccc21 [Example 82, N-[3-(3-Methyl-4-oxo-2,4-dihydro-pyrazolo[4,3-c]quinolin-5-yl)-propyl]-nicotinamide]
< 1000 nM | Cc1[nH]nc2c1c(=O)n(CCCNC(=O)c1ccccc1Cl)c1ccccc21 [Example 84, 2-Chloro-N-[3-(3-methyl-4-oxo-2,4-dihydro-pyrazolo[4,3-c]quinolin-5-yl)-propyl]-benzamide]
< 1000 nM | Cc1[nH]nc2c1c(=O)n(CCCNC(=O)c1ccc(C(C)(C)C)cc1)c1ccccc21 [Example 85, 4-tert-Butyl-N-[3-(3-methyl-4-oxo-2,4-dihydro-pyrazolo[4,3-c]quinolin-5-yl)-propyl]-benzamide]
< 1000 nM | CC(=O)NCCCn1c(=O)c2c(C)[nH]nc2c2ccccc21 [Example 86, N-[3-(3-Methyl-4-oxo-2,4-dihydro-pyrazolo[4,3-c]quinolin-5-yl)-propyl]-acetamide]
1000 to 20000 nM | COc1ccc(Cl)cc1NC(=O)NCCn1c(=O)c2c(C)n[nH]c2c2ccccc21 [Example 89, 1-(5-Chloro-2-methoxy-phenyl)-3-[2-(3-methyl-4-oxo-1,4-dihydro-pyrazolo[4,3-c]quinolin-5-yl)-ethyl]-urea]
1000 to 20000 nM | Cc1[nH]nc2c1c(=O)n(CCCNC(=O)C(Cc1ccc(F)cc1)NC(=O)OC(C)(C)C)c1ccccc21 (centres unmarked) [Example 95, {2-(4-Fluoro-phenyl)-1-[3-(3-methyl-4-oxo-2,4-dihydro-pyrazolo[4,3-c]quinolin-5-yl)-propylcarbamoyl]-ethyl}-carbamic acid tert-butyl ester]
